# Results as given in patent US7081349B1 (The General Hospital Corporation, priority 1994, dated 2006).
# Where two headings read alike, the source gives them in different places.
# Columns and labels:
# [1] = target: T1, sheep Mel-1a receptor (Ovis aries, UniProt P48040); assay: Inhibition of forskolin-stimulated cAMP accumulation in NIH 3T3 cells stably transfected with sheep receptor cDNA; type: cell-based; conditions: for effect of pertussis toxin pretreatment on melatonin inhibition of forskolin-stimulated cAMP: PTX 100 ng/ml, 18 hours, 1 μM melatonin, 10 μM forskolin
# T1 construct: expressed in transfected cells
# Method: The 100% value is the mean cAMP value induced with 10 μM forskolin. […] Cells were preincubated with either vehicle or pertussis toxin for 18 hours (PTX: 100 ng/ml; pertussis toxin was purchased from List, Campbell, Calif.). […] Data are the mean plus standard deviation for 3 plates for each treatment.
# Transformed NIH 3T3 cells were plated on 35 mm dishes. After forty-eight hours, the cells were washed twice with DMEM, and then incubated with or without drugs (diluted in DMEM) for 10 min at 37° C. At the end of treatment, the medium was aspirated and 1 ml of 50 mM acetic acid was added. The cells were collected, transferred to an Eppendorf tube, boiled for 5 min, and centrifuged (13,750 rpm for 15 min). The supernatant was collected and assayed for cAMP. All determinations were done in triplicate. Cyclic AMP levels were determined in duplicate by radioimmunoassay by standard techniques.
# [2] = target: mouse Mel-1a receptor (Mus musculus, UniProt Q61184, F119L/I348L/K349P/L29M/L347F); conditions: COS-7 cells; comparable to sheep and human Mel-1a receptors
# [3] = tested on: human SCN; conditions: quantitative 125I-Mel autoradiography, Reppert et al. 1988; cited from earlier work
# [4] = target: T2, Xenopus high-affinity melatonin receptor (Xenopus laevis, UniProt P49219); assay: Inhibition of forskolin-stimulated cAMP accumulation in CHO cells stably transfected with Xenopus receptor cDNA; type: cell-based; design: expressed in transfected cells
# T2 sequence (P49219 1-420): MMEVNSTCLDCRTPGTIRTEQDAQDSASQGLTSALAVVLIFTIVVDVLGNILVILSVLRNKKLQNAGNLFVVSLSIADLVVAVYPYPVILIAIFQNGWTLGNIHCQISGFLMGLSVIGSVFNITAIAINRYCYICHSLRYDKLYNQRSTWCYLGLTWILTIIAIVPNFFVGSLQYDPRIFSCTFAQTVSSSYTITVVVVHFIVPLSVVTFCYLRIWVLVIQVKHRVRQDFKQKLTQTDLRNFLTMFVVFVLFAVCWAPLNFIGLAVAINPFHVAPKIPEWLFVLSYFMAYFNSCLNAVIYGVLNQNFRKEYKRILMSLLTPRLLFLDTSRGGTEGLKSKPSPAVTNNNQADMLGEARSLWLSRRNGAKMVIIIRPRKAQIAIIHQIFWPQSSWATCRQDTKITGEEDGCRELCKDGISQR
# Method: The 100% value is the mean cAMP value induced with 10 μM forskolin.
# Transformed CHO cells were plated on 35 mm culture dishes. After 48 hours, the cells were washed twice with Ham's F-12 (Life Technologies, Bethesda, Md.). […] Following treatment, the medium was aspirated and 1 ml of 50 mM acetic acid was added to the culture dish. The cells were collected, transferred to an Eppendorf tube, boiled for 5 min, and centrifuged (13,750 rpm for 15 min). The supernatant was collected and assayed for cAMP. All determinations were performed in triplicate. Cyclic AMP levels were determined in duplicate by radioimmunoassay (New England Nuclear, Boston, Mass.).
# [5] = target: T2, Xenopus high-affinity melatonin receptor; assay: 125I-melatonin saturation and competition binding, whole COS-7 cells transiently expressing Xenopus receptor cDNA; design: expressed in transfected cells; host or cells: COS-7 cells, transient, pcDNAI
# Method: Three days after transfection, medium was removed, the culture dishes were washed with PBS, and the cells were harvested. The cells were then pelleted (2500 rpm; 10 min, 4° C.) and stored at −80° C. Whole cell binding studies were performed by thawing the cells and resuspending them in binding buffer (50 mM Tris-HCl, pH 7.4, with 5 mM MgCl2) at a concentration of 456 μg protein 1 ml. […] Protein determinations were performed using the Pierce BCA Protein Assay (The Pierce Chemical Co., Rockford, Ill.). Binding data were analyzed by computer using the LIGAND Program of Munson and Rodbard ((1980) supra).
# (§1) The Bmax value using the whole cell binding assay was 67±7 fmol/mg of protein.
# [6] = target: T3, sheep high-affinity melatonin 1a receptor (Ovis aries, UniProt P48040); assay: 125I-melatonin saturation and competition binding, whole COS-7 cells transfected with sheep receptor cDNA
# T3 construct: expressed in transfected cells; host or cells: COS-7 cells, transient, pcDNAI, DEAE-dextran
# Text: (§2) Data shown are representative of three experiments. […] The data shown are representative of at least three experiments.
# For ligand binding studies, the sheep receptor cDNA (SEQ ID NO:3) in pcDNAI was introduced into COS-7 cells using the DEAE-dextran method (Cullen, B. R. Methods Enzymol. (1987) 152:684-704). Approximately two to three days after transfection, cell culture medium was removed, the cultures dishes were washed with PBS, and the cells were harvested.
# The cells were then pelleted (2500 rpm; 10 min, 4° C.) and stored at −80° C. Whole cell binding studies were performed by thawing the cells and resuspending them in binding buffer (50 mM Tris-HCl, pH 7.4, with 5 mM MgCl2) at a concentration of 200-500 μg protein/ml. The cell suspension was incubated with ^125I-Mel with or without drugs in a total reaction volume of 0.2 ml binding buffer; the suspension as incubated in a shaker bath for 1.5 hr at 25° C. All determinations were done in either duplicate or triplicate. Protein measurements were performed using the Pierce BCA Protein Assay. Binding data were analyzed by computer using the LIGAND Program of Munson and Rodbard (1980).
# [7] = target: T4, human high-affinity melatonin 1a receptor (Homo sapiens, UniProt P48039); assay: 125I-melatonin saturation and competition binding, COS-7 cells transfected with complete human Mel-1a receptor cDNA; conditions: 100 pM 125I-Mel, one-site model
# T4 construct: expressed in transfected cells; host or cells: COS-7 cells, transient, pcDNAI
# Text: as §2
# [8] = target: T5, human Mel-1b receptor (Homo sapiens, UniProt P49286); assay: 125I-Mel saturation and competition binding, membranes of COS-1 cells transfected with human Mel-1b receptor cDNA; conditions: for Ki: 200 pM 125I-Mel, mean ± SE of 3-5 experiments; for Ratio (Mel-1a/Mel-1b): ratio of Ki values; for inhibition of specific 125I-Mel binding: micromolar concentrations, human Mel-1b
# T5 construct: expressed in transfected cells; host or cells: COS-1 cells, transient, pcDNA3; crude membrane homogenates
# T5 sequence (P49286 1-362): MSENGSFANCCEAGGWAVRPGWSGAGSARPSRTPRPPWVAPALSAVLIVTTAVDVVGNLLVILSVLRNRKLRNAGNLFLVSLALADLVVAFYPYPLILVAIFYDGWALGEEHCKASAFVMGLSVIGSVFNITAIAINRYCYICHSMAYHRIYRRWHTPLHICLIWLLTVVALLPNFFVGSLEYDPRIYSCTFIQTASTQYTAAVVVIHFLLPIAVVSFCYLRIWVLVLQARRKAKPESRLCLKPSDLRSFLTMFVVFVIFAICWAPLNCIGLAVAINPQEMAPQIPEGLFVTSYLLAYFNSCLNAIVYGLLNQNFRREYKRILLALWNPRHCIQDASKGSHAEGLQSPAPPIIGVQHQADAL
# Method: Inset: Scatchard plot of saturation data. […] Data shown are representative of five experiments.
# (§3) The data shown are mean values of three to five experiments for each drug.
# Binding and pharmacological properties of the human Mel-1b receptor were examined by transiently expressing the receptor cDNA in COS-1 cells.
# (§4) Expression studies were performed as follows. COS-1 and NIH 3T3 cells were grown as monolayers in Dulbeccols modified Eagle's medium (DMEM) supplemented with 10% fetal calf serum, penicillin (50 U/ml), and streptomycin (50 μg/ml), in 5% CO2 at 37° C. […] Three days after transfection, medium was removed, and the dishes were washed with PBS. The cells were harvested in Hank's balanced salt solution and centrifuged (1400×g; 10 min, 4° C.). The resultant pellets were stored at −80° C. Crude membrane homogenates were prepared by thawing the pellets on ice and resuspending them in TME buffer (pH 7.4) consisting of 50 mM Tris base, 12.5 mM MgCl2, 1 mM EDTA, and supplemented with 10 μg/ml aprotinin and leupeptin, and 100 μM phenylmethylsulfonylfluoride. The cells were then homogenized using a dounce homogenizer and centrifuged (45,000×g; 15 min at 4° C.). The resulting pellet was resuspended with a dounce homogenizer in TME and frozen at […] in aliquots.
# (§5) Incubations were initiated by the addition of the membrane preparation and were conducted at 37° C. for 60 min. […] All determinations were done in either duplicate or triplicate.
# (§6) Protein measurements were performed by the method of Bradford (Bradford, M. M. (1976) Anal. Biochem. 72, 248-254), using bovine serum albumin as the standard.
# (§7) For comparison, binding and pharmacology of COS-1 cells transiently expressing the human Mel-1a receptor were assessed in parallel.
# [9] = target: T6, human Mel-1a receptor (Homo sapiens, UniProt P48039); assay: 125I-Mel saturation and competition binding, membranes of COS-1 cells transfected with human Mel-1a receptor cDNA; conditions: 100 pM 125I-Mel, mean ± SE of 3-5 experiments
# T6 construct: expressed in transfected cells; host or cells: COS-1 cells, transient, pcDNA3; crude membrane homogenates
# Method: as §3, §4, §5, §6, §7
# [10] = tested on: mock-transfected COS-7 cells; assay: 125I-melatonin binding in mock-transfected COS-7 cells
# Text: as §1
# [11] = 100 pM 125I-melatonin, COS-7 cells, Xenopus receptor, representative of three experiments, read-out: Ki, competition for 125I-melatonin binding
# [12] = 100 pM 125I-Mel, COS-7 cells, sheep receptor, one-site model, read-out: Ki, competition for 125I-Mel binding
# T6 sequence (P48039 whole entry): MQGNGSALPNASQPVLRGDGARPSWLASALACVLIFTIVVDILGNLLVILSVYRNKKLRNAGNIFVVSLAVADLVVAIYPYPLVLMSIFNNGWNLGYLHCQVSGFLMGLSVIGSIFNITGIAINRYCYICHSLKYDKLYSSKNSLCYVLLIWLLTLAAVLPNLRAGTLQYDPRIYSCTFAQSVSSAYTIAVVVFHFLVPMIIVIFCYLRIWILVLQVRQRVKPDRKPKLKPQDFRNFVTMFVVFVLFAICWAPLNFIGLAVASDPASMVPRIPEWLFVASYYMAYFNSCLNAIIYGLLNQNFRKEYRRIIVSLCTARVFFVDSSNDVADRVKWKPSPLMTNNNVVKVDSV
# T4 sequence (P48039 whole entry): as above
# T1 sequence (P48040 whole entry): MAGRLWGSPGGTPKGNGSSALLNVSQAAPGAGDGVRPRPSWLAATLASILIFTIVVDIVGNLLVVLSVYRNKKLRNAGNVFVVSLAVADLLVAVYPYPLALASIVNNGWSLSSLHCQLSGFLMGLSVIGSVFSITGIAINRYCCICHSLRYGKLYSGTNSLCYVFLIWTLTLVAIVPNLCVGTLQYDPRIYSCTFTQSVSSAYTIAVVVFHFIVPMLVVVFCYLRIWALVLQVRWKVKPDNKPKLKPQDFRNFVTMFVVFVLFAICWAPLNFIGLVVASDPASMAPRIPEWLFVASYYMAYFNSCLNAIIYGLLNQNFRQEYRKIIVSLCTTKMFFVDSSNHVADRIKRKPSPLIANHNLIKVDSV
# T3 sequence (P48040 whole entry): as above
# mouse Mel-1a receptor, sequence (Q61184 whole entry L29M/F119L/L347F/I348L/K349P): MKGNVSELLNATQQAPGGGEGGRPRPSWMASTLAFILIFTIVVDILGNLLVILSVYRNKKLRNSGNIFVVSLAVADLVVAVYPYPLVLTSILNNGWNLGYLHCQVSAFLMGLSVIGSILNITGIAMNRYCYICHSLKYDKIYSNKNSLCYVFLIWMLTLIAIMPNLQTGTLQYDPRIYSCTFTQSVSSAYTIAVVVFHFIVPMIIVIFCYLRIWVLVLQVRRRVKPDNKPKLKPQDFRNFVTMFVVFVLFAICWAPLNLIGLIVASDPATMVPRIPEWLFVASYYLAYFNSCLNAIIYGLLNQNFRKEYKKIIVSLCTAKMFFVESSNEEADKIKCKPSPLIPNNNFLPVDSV
compound,measurement,setting,value
COc1ccc2[nH]cc(CCNC(C)=O)c2c1 [melatonin],inhibition of forskolin-stimulated cAMP accumulation in vector-only cells,"[1]; melatonin 1 μM, NIH 3T3 cells with pcDNAI NEO lacking the sheep receptor cDNA",did not inhibit
same,effect on basal cAMP levels,"[1]; stably transfected NIH 3T3 lines, sheep receptor",did not alter basal cAMP levels
same,binding affinity,[2],high affinity
same,affinity,[3],high affinity
same,inhibition at 0.01 µM,"[4]; CHO, read-out: maximal inhibition of the mean forskolin-stimulated cAMP concentration",68%
same,IC50,"[4]; manual curve fitting of FIG. 12, 10 μM forskolin, CHO cells, Xenopus receptor",~0.8 nM
same,inhibition of forskolin-stimulated cAMP increase in vector-only cells,"[4]; melatonin 1×10^−6 M, CHO cells stably transfected with vector lacking the Xenopus cDNA",did not inhibit
same,effect on basal cAMP levels,"[4]; melatonin alone 1×10^−6 M, stably transfected CHO cells",not to alter basal cAMP levels
same,Ki,[5]; [11],1.3 nM
"CC(=O)NCCc1c[nH]c2ccc(O)cc12 [NAS, N-acetyl-5-hydroxytryptamine]",Ki,[6]; [12],140 nM
same,Ki,[7],170 nM
same,Ki,[8],595 ± 127 nM
same,Ratio (Mel-1a/Mel-1b),[8],1.6
same,Ki,[9],986 ± 137 nM
same,Ki,[5]; [11],2000 nM
COc1cc2c(CCNC(C)=O)c[nH]c2cc1O [6-hydroxymelatonin],Ki,[6]; [12],3 nM
same,Ki,[7],2 nM
same,Ki,[5]; [11],20 nM
"NCCc1c[nH]c2ccc(O)cc12 [5-HT, 5-hydroxytryptamine]",Ki,[6]; [12],> 100000 nM
same,Ki,[7],> 100000 nM
same,inhibition of specific 125I-Mel binding,[8],did not inhibit
same,Ki,[9],> 10000 nM
same,affinity,[3],very low affinity
same,Ki,[5]; [11],> 100000 nM
COc1ccc2[nH]c(I)c(CCNC(C)=O)c2c1 [2-iodomelatonin],Ki,[6],0.037 nM
same,Ki,[5],0.11 nM
"COc1ccc2[nH]c([125I])c(CCNC(C)=O)c2c1 [^125I-melatonin, 2-[^125I]-iodomelatonin]",specific binding of 125I-melatonin,[10],No specific binding
COc1cc2c(CCNC(C)=O)c[nH]c2cc1Cl [6-chloromelatonin],Ki,[6]; [12],0.25 nM
same,affinity,[3],high affinity
same,Ki,[5]; [11],3 nM
"COc1ccc2[nH]c(I)c(CCNC(C)=O)c2c1 [^125I-melatonin, 2-[^125I]-iodomelatonin]",Ki,"[6]; FIG. 14a inset, COS-7 cells, sheep receptor, representative experiment, read-out: Ki value for the sheep receptor from Scatchard plot of saturation data",0.036 nM
same,Kd,"[5]; saturation 5 to 1280 pM, COS-7 cells, Xenopus receptor, n=3 experiments, read-out: Kd of 125I-melatonin (Scatchard analysis)",0.063 nM
COc1ccc2[nH]c(-c3ccccc3)c(CCNC(C)=O)c2c1 [2-phenylmelatonin],Ki,[8],0.26 ± 0.06 nM
same,Ratio (Mel-1a/Mel-1b),[8],0.8
same,Ki,[9],0.21 ± 0.06 nM
COc1cc2nc(N3CCN(C(=O)c4ccco4)CC3)nc(N)c2cc1OC [prazosin],inhibition of specific 125I-Mel binding,[8],did not inhibit
Pertussis toxin,effect of pertussis toxin pretreatment on melatonin inhibition of forskolin-stimulated cAMP,[1],completely abolished
same,effect of pertussis toxin pretreatment on melatonin inhibition of forskolin-stimulated cAMP,[1]; listed as pertussis toxin,blocks
